Measurements published in PubChem BioAssay AID1259407 (Chemical Carcinogenesis Research Information System (CCRIS), 2018).
Activity calls are given as the source filed them. How the calls were made is not given here.

Test system: CCRIS mutagenicity, Ames/micronucleus/aberration tests
Assay: CCRIS mutagenicity studies
Settings: Test System: AMES SALMONELLA TYPHIMURIUM

Measured: mutagenic call

CCN(N=O)c1ccccc1
inactive: Strain/Indicator: TA98, Metabolic Activation: HAMSTER, LIVER, S-9, AROCLOR 1254, Method: PREINCUBATION inactive; negative | Strain/Indicator: TA98, Metabolic Activation: HAMSTER, LIVER, S-9, AROCLOR 1254, Method: STANDARD PLATE inactive; negative | Strain/Indicator: TA98, Metabolic Activation: HAMSTER, LIVER, S-9, Method: PREINCUBATION inactive; negative | Strain/Indicator: TA98, Metabolic Activation: HAMSTER, LIVER, S-9, Method: STANDARD PLATE inactive; negative | Strain/Indicator: TA98, Metabolic Activation: MOUSE, LIVER, S-9, AROCLOR 1254, Method: PREINCUBATION inactive; negative | Strain/Indicator: TA98, Metabolic Activation: MOUSE, LIVER, S-9, AROCLOR 1254, Method: STANDARD PLATE inactive; negative | Strain/Indicator: TA98, Metabolic Activation: MOUSE, LIVER, S-9, Method: PREINCUBATION inactive; negative | Strain/Indicator: TA98, Metabolic Activation: MOUSE, LIVER, S-9, Method: STANDARD PLATE inactive; negative | Strain/Indicator: TA98, Metabolic Activation: NONE, Method: PREINCUBATION inactive; negative | Strain/Indicator: TA98, Metabolic Activation: NONE, Method: STANDARD PLATE inactive; negative | Strain/Indicator: TA98, Metabolic Activation: RAT, LIVER, S-9, AROCLOR 1254, Method: PREINCUBATION inactive; negative | Strain/Indicator: TA98, Metabolic Activation: RAT, LIVER, S-9, AROCLOR 1254, Method: STANDARD PLATE inactive; negative | Strain/Indicator: TA98, Metabolic Activation: RAT, LIVER, S-9, Method: PREINCUBATION inactive; negative | Strain/Indicator: TA98, Metabolic Activation: RAT, LIVER, S-9, Method: STANDARD PLATE inactive; negative | Strain/Indicator: TA100, Metabolic Activation: HAMSTER, LIVER, S-9, AROCLOR 1254, Method: PREINCUBATION inactive; negative | Strain/Indicator: TA100, Metabolic Activation: HAMSTER, LIVER, S-9, AROCLOR 1254, Method: STANDARD PLATE inactive; negative | Strain/Indicator: TA100, Metabolic Activation: HAMSTER, LIVER, S-9, Method: PREINCUBATION inactive; negative | Strain/Indicator: TA100, Metabolic Activation: HAMSTER, LIVER, S-9, Method: STANDARD PLATE inactive; negative | Strain/Indicator: TA100, Metabolic Activation: MOUSE, LIVER, S-9, AROCLOR 1254, Method: PREINCUBATION inactive; negative | Strain/Indicator: TA100, Metabolic Activation: MOUSE, LIVER, S-9, AROCLOR 1254, Method: STANDARD PLATE inactive; negative | Strain/Indicator: TA100, Metabolic Activation: MOUSE, LIVER, S-9, Method: PREINCUBATION inactive; negative | Strain/Indicator: TA100, Metabolic Activation: MOUSE, LIVER, S-9, Method: STANDARD PLATE inactive; negative | Strain/Indicator: TA100, Metabolic Activation: NONE, Method: PREINCUBATION inactive; negative | Strain/Indicator: TA100, Metabolic Activation: NONE, Method: STANDARD PLATE inactive; negative | Strain/Indicator: TA100, Metabolic Activation: RAT, LIVER, S-9, AROCLOR 1254, Method: PREINCUBATION inactive; negative | Strain/Indicator: TA100, Metabolic Activation: RAT, LIVER, S-9, AROCLOR 1254, Method: STANDARD PLATE inactive; negative | Strain/Indicator: TA100, Metabolic Activation: RAT, LIVER, S-9, Method: PREINCUBATION inactive; negative | Strain/Indicator: TA100, Metabolic Activation: RAT, LIVER, S-9, Method: STANDARD PLATE inactive; negative | Strain/Indicator: TA1535, Metabolic Activation: HAMSTER, LIVER, S-9, AROCLOR 1254, Method: PREINCUBATION inactive; negative | Strain/Indicator: TA1535, Metabolic Activation: HAMSTER, LIVER, S-9, AROCLOR 1254, Method: STANDARD PLATE inactive; negative | Strain/Indicator: TA1535, Metabolic Activation: HAMSTER, LIVER, S-9, Method: PREINCUBATION inactive; negative | Strain/Indicator: TA1535, Metabolic Activation: HAMSTER, LIVER, S-9, Method: STANDARD PLATE inactive; negative | Strain/Indicator: TA1535, Metabolic Activation: MOUSE, LIVER, S-9, AROCLOR 1254, Method: PREINCUBATION inactive; negative | Strain/Indicator: TA1535, Metabolic Activation: MOUSE, LIVER, S-9, AROCLOR 1254, Method: STANDARD PLATE inactive; negative | Strain/Indicator: TA1535, Metabolic Activation: MOUSE, LIVER, S-9, Method: PREINCUBATION inactive; negative | Strain/Indicator: TA1535, Metabolic Activation: MOUSE, LIVER, S-9, Method: STANDARD PLATE inactive; negative | Strain/Indicator: TA1535, Metabolic Activation: NONE, Method: PREINCUBATION inactive; negative | Strain/Indicator: TA1535, Metabolic Activation: NONE, Method: STANDARD PLATE inactive; negative | Strain/Indicator: TA1535, Metabolic Activation: RAT, LIVER, S-9, AROCLOR 1254, Method: PREINCUBATION inactive; negative | Strain/Indicator: TA1535, Metabolic Activation: RAT, LIVER, S-9, AROCLOR 1254, Method: STANDARD PLATE inactive; negative | Strain/Indicator: TA1535, Metabolic Activation: RAT, LIVER, S-9, Method: PREINCUBATION inactive; negative | Strain/Indicator: TA1535, Metabolic Activation: RAT, LIVER, S-9, Method: STANDARD PLATE inactive; negative
